Assay results as given in PubChem BioAssay AID624404 (Broad Institute, 2012).
Results filed as inconclusive are left out. The source made the active and inactive calls.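 The calls were made as follows: active = luciferase signal rise whose fitted curve crosses a set activity limit at or below the top valid tested dose; inconclusive = flat fit with 30 to 70% rise, or poor fit; inactive = signal falling, flat within 30%, or crossing above top dose.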

system: D54 LucT luciferase reporter counterscreen, luminescence, 24 h; assay: luciferase activators in glycosylation-insensitive reporter cells, dose response, counter-screen for N-linked glycosylation inhibitor project, D54 LucT cells, luminescence, cherry pick (AID 624404)

SMILES | AC35
O=C1NC[C@H](Cc2ccccc2)N(C[C@H]2CCCN2C[C@H](Cc2ccccc2)N2C[C@H](Cc3ccc(O)cc3)N(CCc3ccccc3)C(=O)C2=O)C1=O | 3770 nM
CCN(CCCNC(=O)CCCOc1cc(=O)n(C)c2ccccc12)Cc1ccccc1 | 510 nM
Cc1cnc2cc(Cl)c(Cl)cc2n1 | 5410 nM
Cc1ccnc(NC(=O)Nc2ccc3c(c2)N(C)C(=O)CS3)c1 | 8.68 nM
COc1ccccc1C(=O)Nc1ccc2c(c1)nc(CCNC(=O)c1ccco1)n2C | 45.3 nM
COc1ccc(S(=O)(=O)N2CCCCC2)cc1NC(=O)c1[nH]c(C)c(C(C)=O)c1C | 621 nM
N#CC1=C(N)Oc2c(c(=O)sc3ccccc23)C1c1cccnc1 (centres undefined) | 1260 nM
COc1cc2c(cc1OC)CN(c1ccc(C(F)(F)F)cn1)CC2 | 2500 nM
COc1ccc(-n2c(=S)[nH]c3cc(C(=O)Nc4ccc(F)cc4)ccc3c2=O)c(OC)c1 | 1470 nM
Cc1noc(C)c1COc1cccc(C(=O)OC(C)C(=O)Nc2ccc3c(c2)OCO3)c1 (centres undefined) | 1600 nM
C=CCOc1ccc(C(=O)Nc2ccccc2C(=O)NCc2cccnc2)cc1 | 109 nM
COc1ccc(-n2c(=S)[nH]c3cc(C(=O)Nc4ccc(C)c(F)c4)ccc3c2=O)c(OC)c1 | 245 nM
COc1ccc(/C=N\NC(=O)c2sccc2C)cc1Cn1nc(C)cc1C | 280 nM
Cc1ccc2nsnc2c1NC(=O)c1ccc([N+](=O)[O-])o1 | 571 nM
N#Cc1c(N)n(CCc2ccc(F)cc2)c2nc3ccccc3nc12 | 1880 nM
Cc1ccc2nc(/C(C#N)=C/c3cn[nH]c3-c3ccc(F)cc3)[nH]c2c1 | 2180 nM
C[C@@]12C(=O)Nc3cc(F)ccc3C(=O)N1[C@H]1c3ccccc3OC[C@@H]1[C@@H]2c1ccccc1 | 1510 nM
CCc1ccc(OCC(=O)Nc2ccc(-c3cc4ccccc4oc3=O)c(OC)c2)cc1 | 734 nM
COc1ccc(Nc2nc3cc(-c4sccc4C)sc3c(=O)n2C)cc1OC | 104 nM
COc1ccc(/C=C/C(=O)c2ccc(Cl)s2)cc1O | 6020 nM
COc1cc2c(cc1OC)C(c1cccs1)N(C(=S)NC(C)C)CC2 (centres undefined) | 85.1 nM
CCNc1oc(/C=C/c2ccc(OCC)cc2)nc1C#N | 940 nM
COCCCNC(=O)c1ccc(-c2c(C)noc2C)c2ccoc12 | 2330 nM
Cc1ccnc2nc(C(=O)Nc3cc(Cl)ccc3N3CCOCC3)nn12 | 155 nM
O=C(/C=C/c1ccccc1Cl)c1ccc(O)cc1 | 201 nM
CCC(C)C(=O)OC1CCC=C2C=CC(C)C(CCC3CC(O)CC(=O)O3)C21 (centres undefined) | 499 nM
CC12CC[C@H]3[C@@H](CCC4(O)C[C@H](O)CCC34/C=N/NC(=O)c3ccccc3[N+](=O)[O-])C1(O)CCC2C1=CC(=O)OC1 (some centres undefined) | 4030 nM

SMILES | AC35
COc1ccc(/C=N/NC(=O)c2sccc2OCc2ccc(F)cc2)cc1OC | 952 nM
C/C(=N\O)C(=O)C(CN1CCCCC1)CN1CCCCC1 | 1210 nM
COc1cccc(C(=O)Nc2sc3c(c2C#N)CCN(C(C)=O)C3)c1 | 63.5 nM
COc1cccc(C2=CC(c3cccs3)n3nnnc3N2)c1 (centres undefined) | 951 nM
COc1cccc(/C=N/NC(=O)c2cc3c(OC)c(OC)ccc3[nH]2)c1OC | 4940 nM
Cc1ccc2c(CC(=O)NCc3ccco3)coc2c1C | 4460 nM
COc1cccc(C(NC(C)=O)c2nc(-c3ccc(F)cc3OC)cs2)c1 (centres undefined) | 63.3 nM
COc1ccc(-n2c(=S)[nH]c3cc(C(=O)NC4CCCCC4)ccc3c2=O)c(OC)c1 | 414 nM
Cc1cc(C)n(-c2nnc3n2N=C(c2c[nH]c4ccccc24)CS3)n1 | 28.5 nM
COc1cc(C(=O)N/N=C(\C)c2ccc3c(c2)OCO3)cc(OC)c1OC | 92.4 nM
Cc1ccc(-c2nc(NCCCN(C)C)c3ccccc3n2)cc1 | 3890 nM
Oc1[nH]c(N=C2N=c3ccccc3=N2)c2ccccc12 | 17.2 nM
COc1ccc2c(c1)[C@H]1[C@H](CO2)[C@H](c2ccccc2)[C@]2(C)C(=O)Nc3cc(F)ccc3C(=O)N12 | 326 nM
COC(=O)c1ccc(C(=O)NC2CC(C)(C)Cc3c2cnn3-c2ccc(F)cc2)nc1 (centres undefined) | 3950 nM
Nc1c2ccccc2nc2ccccc12 | 4900 nM
COc1ccc2nc3ccccc3nc2c1NC(=O)c1ccccc1Cl | 17900 nM
CCCNC(=O)c1cc(-c2ccco2)on1 | 903 nM
COc1ccc(NC(=O)c2cc(S(=O)(=O)N(C)C)ccc2N2CCCC2)cc1Cl | > 19500 nM (inactive)
COc1cc2c(cc1OC)CN(c1ccc(-c3ccccc3OC)nn1)CC2 | 7870 nM
O=C1COc2ccc(C(=O)/C=C/c3ccccc3)cc2N1 | 641 nM
CSc1ccc(/C=N/NC(=O)c2ccccc2Cl)cc1 | 1230 nM
Cc1ccc(SCC(=O)Nc2ccc(-c3nc4ccccc4[nH]3)cc2)cc1 | 337 nM
Cc1cc(NCCCn2ccnc2)n2nc(C)c(-c3ccccc3)c2n1 | 2290 nM
OCCCNc1c2ccccc2nc2ccccc12 | 4900 nM
O=C(COc1ccccc1)Nc1cccc(-c2cn3cccnc3n2)c1 | 1080 nM
Cc1ccc(C(=O)N/C(=C\c2ccco2)C(=O)NCCc2c[nH]c3ccccc23)cc1 | 1740 nM
COc1ccc(Cl)cc1NC(=O)Nc1ccc(C(=O)N2CCCC2)cc1 | 2950 nM
